# Assay results from BindingDB's records for doi:10.1016/j.ejmech.2007.04.019 (The Hebrew University of Jerusalem, 2008).
# Assays:
# [1] = target: T1, Prostaglandin G/H synthase 2 (Homo sapiens, UniProt P35354); assay: Inhibition of cyclooxygenase-2
# T1 sequence (P35354 whole entry): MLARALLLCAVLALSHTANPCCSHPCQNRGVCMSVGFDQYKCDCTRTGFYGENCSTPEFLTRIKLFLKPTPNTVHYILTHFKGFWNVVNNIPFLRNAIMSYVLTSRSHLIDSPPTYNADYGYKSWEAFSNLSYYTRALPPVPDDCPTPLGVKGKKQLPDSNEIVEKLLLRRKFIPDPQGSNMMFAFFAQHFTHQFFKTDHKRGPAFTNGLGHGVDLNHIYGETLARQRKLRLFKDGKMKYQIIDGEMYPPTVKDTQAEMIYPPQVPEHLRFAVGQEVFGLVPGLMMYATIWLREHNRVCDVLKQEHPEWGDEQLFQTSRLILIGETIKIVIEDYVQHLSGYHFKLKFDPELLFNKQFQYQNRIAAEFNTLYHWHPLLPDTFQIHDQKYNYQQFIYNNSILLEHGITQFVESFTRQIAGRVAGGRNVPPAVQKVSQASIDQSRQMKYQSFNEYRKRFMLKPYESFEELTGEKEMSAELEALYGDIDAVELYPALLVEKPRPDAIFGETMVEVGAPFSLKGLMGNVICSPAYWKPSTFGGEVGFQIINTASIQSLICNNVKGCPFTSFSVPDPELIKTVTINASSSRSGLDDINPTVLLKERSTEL
# [2] = target: Prostaglandin G/H synthase 1 (Homo sapiens, UniProt P23219); assay: Inhibition of cyclooxygenase-1
# Sequence of Prostaglandin G/H synthase 1 (P23219 whole entry): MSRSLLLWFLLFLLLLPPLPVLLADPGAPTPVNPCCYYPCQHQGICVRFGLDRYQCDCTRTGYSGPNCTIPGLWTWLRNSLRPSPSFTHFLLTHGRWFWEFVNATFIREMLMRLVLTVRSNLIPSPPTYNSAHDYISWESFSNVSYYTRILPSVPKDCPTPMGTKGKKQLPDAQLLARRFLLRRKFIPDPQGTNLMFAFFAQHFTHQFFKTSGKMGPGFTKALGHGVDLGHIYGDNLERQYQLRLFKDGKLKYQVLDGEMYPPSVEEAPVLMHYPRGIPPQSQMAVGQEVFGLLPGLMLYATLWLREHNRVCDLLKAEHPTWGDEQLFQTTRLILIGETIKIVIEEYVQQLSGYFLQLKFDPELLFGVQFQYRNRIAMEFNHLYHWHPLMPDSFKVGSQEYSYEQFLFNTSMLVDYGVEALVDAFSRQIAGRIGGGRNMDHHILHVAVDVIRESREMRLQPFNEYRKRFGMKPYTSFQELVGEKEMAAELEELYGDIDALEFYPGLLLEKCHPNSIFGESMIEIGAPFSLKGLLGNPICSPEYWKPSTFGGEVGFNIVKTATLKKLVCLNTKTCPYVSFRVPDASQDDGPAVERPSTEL
compound,measurement,setting,value
C=C[C@@H]1[C@@H](O)C[C@@H]2[C@]3(CC[C@]4(C)[C@@H]([C@H](C)CCC(OO)C(=C)C)CC[C@@]24C)C[C@]13CCC(=O)OC (some centres not stated),IC50,[1],4.7 µM
same,IC50,[2],43.7 µM
